Results from patent US20260364184A1, “COMPOUND BASED ON OXOISOINDOLINYL-SUBSTITUTED TETRAHYDROPYRIMIDINE-DIONE AND USE THEREOF” (GLUETACS THERAPEUTICS (SHANGHAI) CO., LTD., priority 2023, published 2026).

How the values were obtained:
[1] = test system: Human acute lymphocytic leukemia T lymphocytes cell line (CCRF-CEM); experiment: Inhibition of CCRF-CEM cell proliferation (CellTiter luminescent viability); type: cell-based; conditions: Homo sapiens, 96 h, Table IF2, AR inhibitor-based; for inhibition at 0.01 µM: 10 nM, read-out: Inhibition Rate at 10 nM (%); for inhibition at 0.5 µM: 500 nM, read-out: Inhibition Rate at 500 nM (%)
[2] = test system: Human B-Cell Lymphoma Cells (RPMI-8226); experiment: Inhibition of RPMI-8226 cell proliferation (CellTiter luminescent viability); type: cell-based; conditions: Table IA4, IRAK4 inhibitor-based, RPMI-8226, 500 nM, 96 hours, read-out: Inhibition Rate at 500 nM (%)
[3] = test system: Human gastric cancer cell line MGC803; experiment: Inhibition of MGC803 tumor cell proliferation (CellTiter luminescent viability); type: cell-based; conditions: Table IA1, IRAK4 inhibitor-based compounds; MGC803, 96 hours; read-out: Inhibitory activity (IC50, nM) on tumor cell proliferation, MGC803
In short: (§1)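 IC50 is fitted from luminescent viability (CellTiter-Meiluncell) curves. Nine-point, 5-fold dilution series (top stock 2000 μM) are added at 0.5 μL per 100 μL medium to cells plated the day before, with growth at 37 °C and 5% CO2.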

[4] = test system: JEKO-1; experiment: Inhibition of JEKO-1 cell proliferation (CellTiter luminescent viability); type: cell-based, human; conditions: Table IA1, IRAK4 inhibitor-based; JEKO-1, 96 hours; read-out: Inhibitory activity (IC50, nM) on tumor cell proliferation, JEKO-1
In short: as §1

[5] = test system: Human large cell immunoblastic lymphoma cell line SR; experiment: Inhibition of SR cell proliferation (CellTiter luminescent viability); type: cell-based; conditions: Table IA1, IRAK4 inhibitor-based, 96 hours, read-out: Inhibitory activity (IC50, nM) on tumor cell proliferation, SR
In short: as §1

[6] = test system: Human myeloid monocytic leukemia cell line (MV-4-11); experiment: Inhibition of MV-4-11 cell proliferation (CellTiter luminescent viability); type: cell-based; conditions: Homo sapiens, MV4-11, Table IA3, IRAK4 inhibitor-based, 96 hours; for inhibition at 0.01 µM: MV-4-11, 10 nM, read-out: Inhibition Rate at 10 nM (%); for inhibition at 0.5 µM: MV-4-11, 500 nM, read-out: Inhibition Rate at 500 nM (%)
In short: as §1

[7] = test system: Human Acute T Lymphoblastic Leukemia Cells (Molt-4); experiment: Inhibition of Molt-4 cell proliferation (CellTiter luminescent viability); type: cell-based; conditions: Homo sapiens, MOLT-4, 96 h, Table IA2, IRAK4 inhibitor-based, 96 hours; for inhibition at 0.01 µM: Molt-4, 10 nM, read-out: Inhibition Rate at 10 nM (%); for inhibition at 0.5 µM: Molt-4, 500 nM, read-out: Inhibition Rate at 500 nM (%)

## N#Cc1ccc(O[C@H]2CC[C@H](NC(=O)c3ccc(N4CCC(CN5CC6CCC5CN6c5ccc6c(c5)C(=O)N(N5CCC(=O)NC5=O)C6=O)CC4)nn3)CC2)cc1Cl (stereo partly shown) [GT-05832, N-((1r,4r)-4-(3-chloro-4-cyanophenoxy)cyclohexyl)-6-(4-((5-(2-(2,4-dioxotetrahydropyrimidin-1(2H)-yl)-1,3-dioxoisoindolin-5-yl)-2,5-diazabicyclo[2.2.2]octan-2-yl)methyl)piperidin-1-yl)pyridazine-3-carboxamide]
[1]
  inhibition at 0.01 µM: -5 to 0%
  inhibition at 0.5 µM: 30 to 40%

## O=C1CCN(N2C(=O)c3ccc(N4C5CC4CN(C[C@H]4CC[C@H](n6cc(NC(=O)c7cnn8ccc(N9C[C@H]%10C[C@@H]9CO%10)nc78)c(C(F)F)n6)CC4)C5)cc3C2=O)C(=O)N1 [GT-05242, 5-((1R,4R)-2-oxa-5-azabicyclo[2.2.1]heptan-5-yl)-N-(3-(difluoromethyl)-1-((1r,4R)-4-((6-(2-(2,4-dioxotetrahydropyrimidin-1(2H)-yl)-1,3-dioxoisoindolin-5-yl)-3,6-diazabicyclo[3.1.1]heptan-3-yl)methyl)cyclohexyl)-1H-pyrazol-4-yl)pyrazolo[1,5-a]pyrimidine-3-carboxamide]
[2]
  inhibition at 0.5 µM: 30 to 40%

## O=C1CCN(N2Cc3cc(CN4CCC(n5cc(NC(=O)c6coc(-c7ccnc(NCC8CC8)c7)n6)c(C(F)F)n5)CC4)ccc3C2=O)C(=O)N1 [GT-04951, 2-(2-((cyclopropylmethyl)amino)pyridin-4-yl)-N-(3-(difluoromethyl)-1-(1-((2-(2,4-dioxotetrahydropyrimidin-1(2H)-yl)-1-oxoisoindolin-5-yl)methyl)piperidin-4-yl)-1H-pyrazol-4-yl) oxazole-4-carboxamide]
[3]
  IC50: 100 to 300 nM
[4]
  IC50: 100 to 300 nM
[5]
  IC50: 500 to 1000 nM

## CC(C)(O)c1cc2nc(C3CCN(Cc4ccc5c(c4)CN(N4CCC(=O)NC4=O)C5=O)CC3)oc2cc1NC(=O)c1cccc(C(F)(F)F)n1 [GT-05748, N-(2-(1-((2-(2,4-dioxotetrahydropyrimidin-1(2H)-yl)-1-oxoisoindolin-5-yl)methyl)piperidin-4-yl)-5-(2-hydroxypropan-2-yl)benzo[d]oxazol-6-yl)-6-(trifluoromethyl) picolinamide]
[2]
  inhibition at 0.5 µM: 15 to 20%

## O=C1CCN(N2Cc3cc(CN4CCC(n5cc(NC(=O)c6cnn7ccc(N8CCOCC8)nc67)c(C(F)F)n5)CC4)ccc3C2=O)C(=O)N1 [GT-05749]
[2]
  inhibition at 0.5 µM: 15 to 20%
[6]
  inhibition at 0.01 µM: 0 to 10%
  inhibition at 0.5 µM: 80 to 100%
[7]
  inhibition at 0.01 µM: 7 to 10%
  inhibition at 0.5 µM: 60 to 80%

## CC1(C)[C@H](NC(=O)c2ccc(N3CCC(CN4CC5CCC4CN5c4ccc5c(c4)C(=O)N(N4CCC(=O)NC4=O)C5=O)CC3)nc2)C(C)(C)[C@H]1Oc1ccc(C#N)c(Cl)c1 (stereo partly shown) [GT-05834, N-((1r,3r)-3-(3-chloro-4-cyanophenoxy)-2,2,4,4-tetramethylcyclobutyl)-6-(4-((5-(2-(2,4-dioxotetrahydropyrimidin-1(2H)-yl)-1,3-dioxoisoindolin-5-yl)-2,5-diazabicyclo[2.2.2]octan-2-yl)methyl)piperidin-1-yl)nicotinamide]
[1]
  inhibition at 0.01 µM: 10 to 15%
  inhibition at 0.5 µM: 40 to 60%

## O=C1CCN(N2Cc3cc(CN4CCC(n5cc(NC(=O)c6cnn7ccc(N8C[C@H]9C[C@@H]8CO9)nc67)c(C(F)F)n5)CC4)ccc3C2=O)C(=O)N1 [GT-05028, 5-((1R,4R)-2-oxa-5-azabicyclo[2.2.1]heptan-5-yl)-N-(3-(difluoromethyl)-1-(1-((2-(2,4-dioxotetrahydropyrimidin-1(2H)-yl)-1-oxoisoindolin-5-yl)methyl)piperidin-4-yl)-1H-pyrazol-4-yl)pyrazolo[1,5-a]pyrimidine-3-carboxamide]
[3]
  IC50: 500 to 1000 nM
[4]
  IC50: 300 to 500 nM
[5]
  IC50: 500 to 1000 nM

## O=C1CCN(N2C(=O)c3cccc(N4CCC(CN5CCC(n6cc(NC(=O)c7cnn8ccc(N9C[C@H]%10C[C@@H]9CO%10)nc78)c(C(F)F)n6)CC5)CC4)c3C2=O)C(=O)N1 [GT-05285, 5-((1R,4R)-2-oxa-5-azabicyclo[2.2.1]heptan-5-yl)-N-(3-(difluoromethyl)-1-(1-((1-(2-(2,4-dioxotetrahydropyrimidin-1(2H)-yl)-1,3-dioxoisoindolin-4-yl)piperidin-4-yl)methyl)piperidin-4-yl)-1H-pyrazol-4-yl)pyrazolo[1,5-a]pyrimidine-3-carboxamide]
[2]
  inhibition at 0.5 µM: 25 to 30%
[6]
  inhibition at 0.01 µM: 45 to 50%
  inhibition at 0.5 µM: 80 to 100%
[7]
  inhibition at 0.01 µM: -5 to 0%
  inhibition at 0.5 µM: 80 to 100%
